Measured values taken from patent US20150110907A1, “METHOD OF TESTING THE ACTIVITY OF A POTENTIALLY ACTIVE SUBSTANCE TO INHIBIT THE ENZYMATIC ACTIVITY OF PHOSPHOLIPASE A2” (BASF Beauty Care Solutions France S.A.S., priority 2002, published 2015).
Where two headings read alike, the source gives them in different places. Each block holds one molecule with its values, some of them ahead of it.

Biological target: T1, PLA2 of type I originating from pig pancreas (Sus scrofa, UniProt P00592)
T1 construct: originates from pig pancreas (enzyme of type I); from tissue; host or cells: pig pancreas
T1 sequence (P00592 23-146): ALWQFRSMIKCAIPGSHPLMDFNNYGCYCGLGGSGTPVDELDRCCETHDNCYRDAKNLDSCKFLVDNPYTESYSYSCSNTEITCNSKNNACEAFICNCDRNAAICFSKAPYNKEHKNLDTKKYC
Experiment: Acellular in vitro inhibition of PLA2 of type I, determination of free fatty acids
Assay type: biochemical
Details: for Inhibition by substance tested pure (%): percentage inhibition with respect to the control; for inhibition at 1000 µM: 1 mM; for Inhibition (%) Product diluted at 1/100 in demineralized water: initial solution diluted at 1/100 in demineralized water
Procedure: The study of the inhibition of phospholipase A2 (PLA2) is carried out in an acellular in vitro model which aims to be a reflection, near as possible, of the situation encountered in vivo.
The PLA2s of type I and of type II are used in vitro, in a model comprising: • 1) a substrate selected from the ester derivatives of arachidonic acid (such as β-arachidonoyl γ-palmitoyl L-α-phosphatidylcholine, which is a phospholipid containing arachidonic acid in SN2 position, site hydrolyzed by the phospholipase A2) which specifically is the fatty add involved in the synthesis of the mediators of the inflammation, • 2) a bivalent ion, playing the role of catalyst (such as calcium), • 3) an activator, which is indispensable for the activity of the enzyme, playing the role of solubilizer of the substrate in the reaction medium and enabling promoting the enzyme-substrate interaction (preferably sodium deoxycholate).
The enzyme in the presence of its cofactor is incubated for a determined period of time (e.g. about 15 minutes) with the inhibitor, and then a second incubation is carried out for (e.g. about 20 minutes) in the presence of the substrate which is preferably β-arachidonoyl γ-palmitoyl L-α-phosphatidylcholine and of the activator, which is preferably sodium deoxycholate.
At the end of this incubation, a determination of the non-esterified fatty acids is made on the reaction medium by an enzymatic technique that it is for example possible to follow by colorimetry at a defined wavelength.
In parallel, a control corresponding to the activity of the phospholipase A2 in the absence of inhibitor is carried out.
The PLA2 in aqueous solution (35 Units/ml), is placed in the presence of 3 mM β-arachidonoyl γ-palmitoyl L-α-phosphatidylcholine, which is a phospholipid containing, in SN2 position, site hydrolyzed by the phospholipase A2, arachidonic add, which is specifically an important fatty acid involved in the synthesis of the mediators of inflammation,
a) the enzyme in the presence of the cofactor (calcium) is incubated for 15 minutes at ambient temperature (20° C.) with the inhibitor;
b) then, a second incubation of 20 minutes is made in the presence of β-arachidonoyl γ-palmitoyl L-α-phosphatidylcholine (3 mM) and sodium deoxycholate (1.6 mM).
At the end of this incubation, a determination of the free fatty acids, thus non-esterified free fatty acids, is made on the reaction medium by a classical enzymatic technique which is well-known to the person skilled in the art, that it is possible to follow by colorimetry, e.g. here at 550 nm,
The anti-PLA2 activity of increasing concentrations of the product selected was measured over three different batches of starting material. Each determination was made in triplicate, […]

[1] = Table VII, read-out: percentage inhibition with respect to control
[2] = Table VII, 10 mM, read-out: percentage inhibition with respect to control
[3] = non-diluted, initial concentrations: aristolochic acid 2 mM, p-bromophenacyl bromide 10 mM, nordihydroguaiaretic acid 5 mM

Molecule: Zinc gluconate
Inhibition by substance diluted at 1% in demineralized water (%): 12.6% | Inhibition by substance tested pure (%): 50%

Molecule: C[C@]12CCC(=O)C=C1CC[C@@H]1[C@@H]2[C@@H](O)C[C@@]2(C)[C@H]1CC[C@]2(O)C(=O)CO [Hydrocortisone]
inhibition at 10000 µM [2]: 4.5%

Molecule: COc1cccc2c1cc([N+](=O)[O-])c1c(C(=O)O)cc3c(c12)OCO3 [Aristolochic acid, 8-methoxy-6-nitrophenanthro(3,4-d)-1,3-dioxole-5-carboxylic acid]
Inhibition (%) Product diluted at 1/100 in demineralized water: 10.00% ± 3.4 | Inhibition (%) Product diluted at 1/1000 in demineralized water (initial solution diluted at 1/1000 in demineralized water): 0.25% ± 0.5 | Inhibition (%) Non-diluted product [3]: 96.2% ± 1.04

Molecule: Magnesium gluconate
Inhibition by substance diluted at 1% in demineralized water (%): 0% | Inhibition by substance tested pure (%): 3.4%

Molecule: O=C(CBr)c1ccc(Br)cc1 [p-bromophenacyl bromide]
Inhibition (%) Product diluted at 1/100 in demineralized water: 4.5% ± 2.3 | inhibition at 10000 µM (non-diluted, initial concentrations: aristolochic acid 2 mM, p-bromophenacyl bromide 10 mM, nordihydroguaiaretic acid 5 mM, read-out: Inhibition (%) Non-diluted product): 29.9%

Molecule: C[C@]12CCC(=O)C=C1CC[C@@H]1[C@@H]2C(=O)C[C@@]2(C)[C@H]1CC[C@]2(O)C(=O)CO [Cortisone]
percentage inhibition with respect to control (Table VII, 10 mM): 0%

The next lines start with the values.

inhibition at 1000 µM [1]: 0% | inhibition at 10000 µM [2]: 25.7%
Molecule: COc1ccc2c(c1)c(CC(=O)O)c(C)n2C(=O)c1ccc(Cl)cc1 [Indomethacin]

Inhibition (%) Product diluted at 1/100 in demineralized water: 8.8% ± 0.8 | Inhibition (%) Non-diluted product [3]: 97.3% ± 13.2
Molecule: CC(Cc1ccc(O)c(O)c1)C(C)Cc1ccc(O)c(O)c1 (centres unmarked) [nordihydroguaiaretic acid]

inhibition at 1000 µM [1]: 3.5% | inhibition at 10000 µM [2]: 7%
Molecule: CC(=O)Oc1ccccc1C(=O)O [Aspirin]

inhibition of the PLA2 (commercial 1% genistein solution): 28.79%
Molecule: O=c1c(-c2ccc(O)cc2)coc2cc(O)cc(O)c12 [genistein]

inhibition at 1000 µM [1]: 6.9% | inhibition at 10000 µM [2]: 40.3%
Molecule: CC(C)Cc1ccc(C(C)C(=O)O)cc1 (centres unmarked) [Ibuprofen]

inhibition at 1000 µM [1]: 8% | inhibition at 10000 µM [2]: 29.8%
Molecule: O=C(O)Cc1ccccc1Nc1c(Cl)cccc1Cl [Diclofenac]

inhibition at 10000 µM [2]: 6.3%
Molecule: C[C@]12C=CC(=O)C=C1CC[C@@H]1[C@@H]2[C@@H](O)C[C@@]2(C)[C@H]1CC[C@]2(O)C(=O)CO [Prednisolone]
